# US20140363383A1, “AEROSOL FORMULATION FOR COPD” (Chiesi Farmaceutici S.p.A, priority 2009, published 2014)
# Experiment: Compatibility with other active ingredients, especially formoterol
# Type: physicochemical
# Settings: versus glycopyrronium bromide
structure (smiles),measurement,value
"C[N+]1(C)CCC(OC(=O)C(O)(c2ccccc2)C2CCCC2)C1.[Cl-] (stereo not shown) [glycopyrronium chloride, 3-[(cyclopentylhydroxyphenylacetyl)oxy]-1,1-dimethylpyrrolidinium chloride]",compatibility with other active ingredients,better compatibility with other active ingredients
